Assay results from patent US20240408169A1 (priority 2023, published 2024).
Read-outs that look alike come from different tables or passages of the source. *1 amine or outer side, *2 acyl side, *3 side chain or, on linkers, in order; H or OH if unused. Where a SMILES comes first, the peptide text is derived from it. Bridges are numbered along the chain shown (N, C = ends). [ ]: non-standard residue; d: D form. The star is where a group is joined. NMePhe(2-(4-MorPh),5-Cl) = CN[C@@H](Cc1cc(Cl)ccc1-c1ccc(N2CCOCC2)cc1)C(=O)O; X134 = CN([C@@H](Cc1cc(Cl)ccc1-c1cnc2[nH]c(O)cc2c1)C(=O)[*:2])[*:1]; X123 = CN([C@@H](Cc1cc(Cl)ccc1-c1ccc[nH]c1=O)C(=O)[*:2])[*:1]; X183 = CN([C@@H](Cc1cc(Cl)ccc1-c1ccc2nncn2c1)C(=O)[*:2])[*:1]; NMehhhLys(Me) = CN([C@@H](CCCCCCCN(C)[*:3])C(=O)[*:2])[*:1]; X125 = CN([C@@H](Cc1cc(Cl)ccc1-c1cncc(F)c1)C(=O)[*:2])[*:1]; X188 = CN([C@@H](Cc1cc(Cl)ccc1-c1ccn(C)n1)C(=O)[*:2])[*:1]; X22 = CN([C@@H](Cc1cc(Cl)ccc1-c1cnn(C)c1)C(=O)[*:2])[*:1]; NMe3Pal(2-OcPr,5-F) = CN[C@@H](Cc1cc(F)cnc1OC1CC1)C(=O)O; X154 = Cc1oncc1-c1ccc(Cl)cc1C[C@@H](C(=O)[*:2])N(C)[*:1]; NMe(hhhLys) = CN([C@@H](CCCCCCCN[*:3])C(=O)[*:2])[*:1]; NMe3Pal(2-OMe,5-Cl) = CN[C@@H](Cc1cc(Cl)cnc1OC)C(=O)O; X152 = CN([C@@H](Cc1cc(Cl)ccc1OC1CC1)C(=O)[*:2])[*:1]; Cyclobutanecarbonyl(1-CF3) = O=C(C1(C(F)(F)F)CCC1)*; cBuCO(3,3-F2-1-CF3) = O=C(C1(C(F)(F)F)CC(F)(F)C1)*; Pro(trans-4-F) = O=C(O)[C@@H]1C[C@@H](F)CN1; Pivaloyl(3,3,3-F3) = CC(C)(C(=O)*)C(F)(F)F; Gly(cPr) = N[C@H](C(=O)O)C1CC1

Legend:
[1] = target: T1, CyclinB1/CDK1 (Homo sapiens, UniProt P14635); assay: Fluorescence Polarization (FP) competitive binding assay, Cyclin B1/Cdk1;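 note: fluorescence polarization read after equilibration at room temperature, with IC50 taken from serially diluted dose-response curves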
T1 construct: purchased Eurofins, discovery 14-450

[2] = tested on: NCI-H1048 cells; assay: MTT proliferation assay, NCI-H1048; assay type: cell-based; conditions: 5 days compound exposure, 1:3 serial dilution starting at 10 μM;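 note: Dose-response in 96-well plates over 8 or 10 concentration points, with exposure spanning 3-4 cell doublings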
[3] = target: T2, CyclinA2/CDK2 (Homo sapiens, UniProt P20248); assay: Fluorescence Polarization (FP) competitive binding assay, Cyclin A2/Cdk2;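 note: plates equilibrated two hours at room temperature before polarization reading, IC50 fitted from eight-concentration compound titration curves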
T2 construct: purchased CRELUX Protein Services

[4] = tested on: OVCAR3 cells; assay: MTT proliferation assay, OVCAR3; assay type: cell-based; conditions: 5 days compound exposure, 1:3 serial dilution starting at 10 μM;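 note: compound given as an 8- or 10-point series, one day after plating, with exposure covering roughly 3-4 cell doublings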
[5] = target: T3, CyclinE1/CDK2 (Homo sapiens, UniProt P24864); assay: Fluorescence Polarization (FP) competitive binding assay, Cyclin E1/Cdk2;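 note: readings taken after two-hour equilibration at room temperature in HEPES buffer with NaCl, DTT, NP-40 and BSA, IC50 fitted from eight-concentration serial dilution series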
T3 construct: purchased Eurofins, discovery 14-475

[6] = 10 nM Cyclin B1/Cdk1, 2 nM FAM probe; average of 2-3 independent experiments; read-out: Cyclin B FP IC50
[7] = 8 nM Cyclin A2/Cdk2, 2 nM FAM probe, average of 2-3 independent experiments, read-out: Cyclin A FP IC50
[8] = 10 nM Cyclin E1/Cdk2, 2 nM FAM probe, average of 2-3 independent experiments, read-out: Cyclin E FP IC50
[9] = read-out: Cyclin B FP IC50; 10 nM Cyclin B1/Cdk1, 2 nM FAM probe; average of 2-3 independent experiments

SMILES	IC50 [1, 6]	GI50 [2]	IC50 [3, 7]	GI50 [4]	IC50 [5, 8]	IC50 [1, 9]	IC50 [3]	IC50 [5]
CC(C)C[C@@H]1NC(=O)[C@@H](N(C)C(=O)[C@@H](NC(=O)[C@@H]2C[C@@H](F)CN2C(=O)C2(C(F)(F)F)CCC2)C2CC2)CC=CCCCCN(C)C(=O)[C@H](Cc2cc(F)ccc2-c2cncnc2)N(C)C1=O [Example 41]	20 nM	100 nM	160 nM	130 nM	810 nM			
CC(C)C[C@@H]1NC(=O)[C@@H](N(C)C(=O)[C@@H](NC(=O)[C@@H]2CCCN2C(=O)C2(C(F)(F)F)CC(F)(F)C2)C2CC2)CCCCCCCN(C)C(=O)[C@H](Cc2cc(Cl)ccc2-c2cnn(C)c2)N(C)C1=O [Example 77] ({cBuCO(3,3-F2-1-CF3)}-P[Gly(cPr)][NMehhhLys(Me)]L[X22]; lactam 3-C)	20 nM	60 nM	20 nM	70 nM	1710 nM			
CC(C)C[C@@H]1NC(=O)[C@@H](N(C)C(=O)[C@@H](NC(=O)[C@@H]2C[C@@H](F)CN2C(=O)C2(C(F)(F)F)CCC2)C2CC2)CCCCCCCN(C)C(=O)[C@H](Cc2cc(F)cnc2OC2CC2)N(C)C1=O [Example 135] ({Cyclobutanecarbonyl(1-CF3)}-[Pro(trans-4-F)][Gly(cPr)][NMehhhLys(Me)]L[NMe3Pal(2-OcPr,5-F)]; lactam 3-C)	20 nM	30 nM	80 nM	20 nM	120 nM			
CC(C)C[C@@H]1NC(=O)[C@@H](N(C)C(=O)[C@@H](NC(=O)[C@@H]2C[C@@H](F)CN2C(=O)C2(C(F)(F)F)CC(F)(F)C2)C2CC2)CCCCCCCN(C)C(=O)[C@H](Cc2cc(F)cnc2OC2CC2)N(C)C1=O [Example 128] ({cBuCO(3,3-F2-1-CF3)}-[Pro(trans-4-F)][Gly(cPr)][NMehhhLys(Me)]L[NMe3Pal(2-OcPr,5-F)]; lactam 3-C)	20 nM	30 nM	80 nM	30 nM	190 nM			
CC(C)C[C@@H]1NC(=O)[C@@H](N(C)C(=O)[C@@H](NC(=O)[C@@H]2C[C@@H](F)CN2C(=O)C2(C(F)(F)F)CCC2)C2CC2)CC=CCCCCN(C)C(=O)[C@H](Cc2cc(F)ccc2-c2cnn(CC(F)F)c2)N(C)C1=O [Example 83]	20 nM	20 nM	40 nM	10 nM	100 nM			
CC(C)C[C@@H]1NC(=O)[C@@H](N(C)C(=O)[C@@H](NC(=O)[C@@H]2C[C@@H](F)CN2C(=O)C2(C(F)(F)F)CC(F)(F)C2)C2CC2)CCCCCCCN(C)C(=O)[C@H](Cc2cc(Cl)ccc2-c2cncc(F)c2)N(C)C1=O [Example 198] ({cBuCO(3,3-F2-1-CF3)}-[Pro(trans-4-F)][Gly(cPr)][NMehhhLys(Me)]L[X125]; lactam 3-C)	20 nM	50 nM	50 nM	50 nM	1450 nM			
CC(C)C[C@@H]1NC(=O)[C@@H](N(C)C(=O)[C@@H](NC(=O)[C@@H]2C[C@@H](F)CN2C(=O)C2(C(F)(F)F)CC(F)(F)C2)C2CC2)CCCCCCCNC(=O)[C@H](Cc2cc(Cl)ccc2OC2CC2)N(C)C1=O [Example 311] ({cBuCO(3,3-F2-1-CF3)}-[Pro(trans-4-F)][Gly(cPr)][NMe(hhhLys)]L[X152]; lactam 3-C)	20 nM	20 nM	50 nM	30 nM	200 nM			
Cc1oncc1-c1ccc(Cl)cc1C[C@H]1C(=O)N(C)CCCCCCC[C@H](N(C)C(=O)[C@@H](NC(=O)[C@@H]2C[C@@H](F)CN2C(=O)C2(C(F)(F)F)CC(F)(F)C2)C2CC2)C(=O)N[C@@H](CC(C)C)C(=O)N1C [Example 212] ({cBuCO(3,3-F2-1-CF3)}-[Pro(trans-4-F)][Gly(cPr)][NMehhhLys(Me)]L[X154]; lactam 3-C)		80 nM		80 nM		20 nM	70 nM	4160 nM
CC(C)C[C@@H]1NC(=O)[C@@H](NC(=O)[C@@H](NC(=O)[C@@H]2C[C@@H](F)CN2C(=O)C2(C(F)(F)F)CC2)C2CC2)CC=CCCCCN(C)C(=O)[C@H](Cc2cc(Cl)ccc2Cl)N(C)C1=O [Example 11]	20 nM	80 nM	170 nM	210 nM	100 nM			
CC(C)C[C@@H]1NC(=O)[C@@H](N(C)C(=O)[C@@H](NC(=O)[C@@H]2C[C@@H](F)CN2C(=O)C2(C(F)(F)F)CC(F)(F)C2)C2CC2)CCCCCCCNC(=O)[C@H](Cc2cc(Cl)ccc2-c2ccc(N3CCOCC3)cc2)N(C)C1=O [Example 333] ({cBuCO(3,3-F2-1-CF3)}-[Pro(trans-4-F)][Gly(cPr)][NMe(hhhLys)]L[NMePhe(2-(4-MorPh),5-Cl)]; lactam 3-C)	20 nM	10 nM	20 nM	10 nM	1150 nM			
CC(C)C[C@@H]1NC(=O)[C@@H](N(C)C(=O)[C@@H](NC(=O)[C@@H]2C[C@@H](F)CN2C(=O)C2(C(F)(F)F)CC(F)(F)C2)C2CC2)CCCCCCCN(C)C(=O)[C@H](Cc2cc(Cl)ccc2-c2ccc3nncn3c2)N(C)C1=O [Example 178] ({cBuCO(3,3-F2-1-CF3)}-[Pro(trans-4-F)][Gly(cPr)][NMehhhLys(Me)]L[X183]; lactam 3-C)	20 nM	1180 nM	50 nM	2570 nM	5460 nM			
CC(C)C[C@@H]1NC(=O)[C@@H](N(C)C(=O)[C@@H](NC(=O)[C@@H]2C[C@@H](F)CN2C(=O)C2(C(F)(F)F)CC(F)(F)C2)C2CC2)CCCCCCCN(C)C(=O)[C@H](Cc2cc(Cl)ccc2-c2ccc[nH]c2=O)N(C)C1=O [Example 208] ({cBuCO(3,3-F2-1-CF3)}-[Pro(trans-4-F)][Gly(cPr)][NMehhhLys(Me)]L[X123]; lactam 3-C)		830 nM		1960 nM		20 nM	210 nM	6400 nM
CC(C)C[C@@H]1NC(=O)[C@@H](N(C)C(=O)[C@@H](NC(=O)[C@@H]2C[C@@H](F)CN2C(=O)C2(C(F)(F)F)CC(F)(F)C2)C2CC2)CCCCCCCN(C)C(=O)[C@H](Cc2cc(Cl)ccc2-c2ccn(C)n2)N(C)C1=O [Example 205] ({cBuCO(3,3-F2-1-CF3)}-[Pro(trans-4-F)][Gly(cPr)][NMehhhLys(Me)]L[X188]; lactam 3-C)		20 nM		30 nM		20 nM	30 nM	480 nM
CC(C)C[C@@H]1NC(=O)[C@@H](N(C)C(=O)[C@@H](NC(=O)[C@@H]2C[C@@H](F)CN2C(=O)C2(C(F)(F)F)CC(F)(F)C2)C2CC2)CCCCCCCN(C)C(=O)[C@H](Cc2cc(Cl)ccc2-c2cnc3[nH]c(O)cc3c2)N(C)C1=O [Example 272] ({cBuCO(3,3-F2-1-CF3)}-[Pro(trans-4-F)][Gly(cPr)][NMehhhLys(Me)]L[X134]; lactam 3-C)	20 nM	90 nM	50 nM	430 nM	1600 nM			
COc1ncc(Cl)cc1C[C@H]1C(=O)N(C)CCCCCCC[C@H](N(C)C(=O)[C@@H](NC(=O)[C@@H]2C[C@@H](F)CN2C(=O)C(C)(C)C(F)(F)F)C2CC2)C(=O)N[C@@H](CC(C)C)C(=O)N1C [Example 268] ({Pivaloyl(3,3,3-F3)}-[Pro(trans-4-F)][Gly(cPr)][NMehhhLys(Me)]L[NMe3Pal(2-OMe,5-Cl)]; lactam 3-C)	20 nM	20 nM	60 nM	10 nM	100 nM			
